Columns and labels:
mouse SGLT4 = target: T1, mouse SGLT4 (Mus musculus, UniProt Q8VDT1); assay: Inhibition of 50 µM mannose transport in HEK293T cells expressing mouse SGLT4; assay type: cell-based; settings: 10 mM 1,5-AG
T1 construct: expressed in transfected cells; host or cells: HEK293T
T1 sequence (Q8VDT1 1-685): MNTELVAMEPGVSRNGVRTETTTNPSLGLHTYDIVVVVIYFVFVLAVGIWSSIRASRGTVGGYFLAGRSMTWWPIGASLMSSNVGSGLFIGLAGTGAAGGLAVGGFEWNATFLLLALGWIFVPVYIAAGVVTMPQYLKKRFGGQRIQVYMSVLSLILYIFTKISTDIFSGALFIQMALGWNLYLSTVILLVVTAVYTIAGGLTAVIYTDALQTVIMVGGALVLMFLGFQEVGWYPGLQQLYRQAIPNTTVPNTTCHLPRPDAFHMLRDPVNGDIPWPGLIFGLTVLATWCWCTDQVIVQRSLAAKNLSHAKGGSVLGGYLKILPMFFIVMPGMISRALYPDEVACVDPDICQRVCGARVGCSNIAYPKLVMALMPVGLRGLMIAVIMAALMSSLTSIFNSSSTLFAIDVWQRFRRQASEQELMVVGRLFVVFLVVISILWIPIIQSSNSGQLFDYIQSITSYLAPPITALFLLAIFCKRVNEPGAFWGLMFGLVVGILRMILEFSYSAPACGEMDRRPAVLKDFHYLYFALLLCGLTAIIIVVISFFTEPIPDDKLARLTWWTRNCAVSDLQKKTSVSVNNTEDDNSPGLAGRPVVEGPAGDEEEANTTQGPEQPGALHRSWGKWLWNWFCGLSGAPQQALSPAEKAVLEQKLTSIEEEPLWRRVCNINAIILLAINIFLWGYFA
Procedure: Supplementary Fig. 4: Transport activities for 1,5-anhydroglucitol and mannose of recombinant mouse SGLT4 and SGLT5 isoforms measured in HEK293T cells.
Transport was measured in 24 well plates with 0.6x10^6 cells during 30 mins at 37°C in 5% CO2 in the presence of the indicated concentrations of 2-[1H+3H]-1,5-AG for both mSGLT4 (A) and mSGLT5 (B) and U-[12C+14C]-mannose (C) for mSGLT4. The saturation curves for the transport activities and the derived kinetic constants (Km and Vmax) are shown and indicate that mSGLT4 appears to be able to transport 1,5-anhydroglucitol but with a very low affinity (Km > 5 mM – panel A) compared to mannose (Km = 0.2 mM – panel C), while mSGLT5 transports efficiently 1,5-anhydroglucitol (Km = 0.5 mM – panel B). (D) 10 mM 1,5- […]
U-[12C+14C]-mannose) for both the human (hSGLT4) and the mouse (mSGLT4) isoforms of […]
(also on this page, place not known: Transport of (pmol/min/100 cells) Transport of (pmol/min/100 cells) 000 Transport of 1,5-AG (pmol/min/100 000 cells) 000 hSGLT4 mSGLT4 Mannose transport activity (% of the value at [12C+14C]-mannose) 50 µM mannose 1,5-AG)

hSGLT5 Ala522Val = target: T2, hSGLT5 Ala522Val (Homo sapiens, UniProt A0PJK1, A522V); assay: Inhibition of 10 µM 1,5-AG transport by SGLT5 variant Ala522Val; assay type: cell-based; settings: Fig. 5D
T2 construct: pUB83-hSGLT5-iso2 as well as the various SGLT5 mutants obtained were used to transduce HEK293T cells; expressed in transfected cells; host or cells: HEK293T, lentiviral transduction (pUB83)
T2 sequence (A0PJK1 1-596 A522V): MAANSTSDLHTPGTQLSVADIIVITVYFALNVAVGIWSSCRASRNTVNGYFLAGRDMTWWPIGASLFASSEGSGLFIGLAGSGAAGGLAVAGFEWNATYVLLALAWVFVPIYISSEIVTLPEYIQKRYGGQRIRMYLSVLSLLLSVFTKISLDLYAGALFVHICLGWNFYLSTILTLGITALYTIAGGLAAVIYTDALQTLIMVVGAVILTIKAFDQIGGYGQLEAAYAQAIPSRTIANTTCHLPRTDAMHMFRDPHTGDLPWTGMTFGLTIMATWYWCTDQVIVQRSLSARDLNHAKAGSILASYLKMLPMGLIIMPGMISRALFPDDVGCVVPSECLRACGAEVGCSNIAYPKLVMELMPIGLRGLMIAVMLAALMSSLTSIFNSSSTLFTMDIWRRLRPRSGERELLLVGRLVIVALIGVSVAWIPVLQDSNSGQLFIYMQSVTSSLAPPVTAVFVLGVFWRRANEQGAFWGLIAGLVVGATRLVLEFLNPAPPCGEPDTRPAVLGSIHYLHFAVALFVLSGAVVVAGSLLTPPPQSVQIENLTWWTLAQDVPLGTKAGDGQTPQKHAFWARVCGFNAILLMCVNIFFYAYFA
Procedure: The transport experiments to study the specificity of SGLT4 or SGLT5, were performed in the presence of 10 µM U-[^14C + ^12C]-mannose (for SGLT4) or 2-[^3H + ^1H]-1,5-AG (for SGLT5) and increasing concentrations of various sugars tested. The transport experiments to study the inhibition of empagliflozin, dapagliflozin or remogliflozin, on the transport of 1,5-AG by SGLT5 or its variants were performed in the presence of 10 µM 2-[^3H + ^1H]-1,5-AG and increasing concentrations of the various gliflozins tested.
SGLT5 mutants were created using the quick-change site directed mutagenesis method that enables effective mutagenesis without subcloning of the amplified PCR products. Complementary primer pairs carrying the desired replacements (Supplementary Table 3) were designed using an online tool (https://www.agilent.com/store/primerDesignProgram.jsp). The PCR protocol was carried out following the manufacturer instructions regarding the KOD HOT Start polymerase kit (TOYOBO™, Novagen). The amplified DNA was cleaned-up from the reactions constituents using the GeneJET PCR purification Kit (Thermo Scientific™) and the size of the DNA fragment were verified by DNA agarose-gel electrophoresis. […]

Row | SMILES | inhibition of mouse SGLT4 transport activity (mouse SGLT4) | effect of mutation on concentration of empagliflozin needed to inhibit SGLT5 (hSGLT5 Ala522Val)
1 | OC[C@H]1OC[C@H](O)[C@@H](O)[C@@H]1O [1,5-AG, 1,5-anhydroglucitol] | barely inhibited | 
2 | OC[C@H]1O[C@@H](c2ccc(Cl)c(Cc3ccc(O[C@H]4CCOC4)cc3)c2)[C@H](O)[C@@H](O)[C@@H]1O [empagliflozin] |  | did not affect significantly
